Data from US20080280937A1, “Ligand Conjugates of Vinca Alkaloids, Analogs, and Derivatives” (priority 2005, published 2008).
“Also recorded” adds a separate entry of the source.

Key:
M109 tumors = test: Inhibition of Tumor Growth in Mice, subcutaneous M109 tumors; assay type: in vivo; details: Balb/c mice
Procedure: Inhibition of Tumor Growth in Mice. The anti-tumor activity of the compounds described herein, when administered intravenously (i.v.) to tumor-bearing animals, was evaluated in Balb/c mice bearing subcutaneous M109 tumors. Approximately 11 days post tumor inoculation in the subcutis of the right axilla with 1×10^6 M109 cells (tumor volume range at t0=between 60 and 80 mm^3), mice (5/group) were injected i.v. three times a week (TIW), for a defined length of time (e.g., 2-3 weeks) with (a) a defined dose level on a per kilogram body weight basis of a drug delivery conjugate described herein, or (b) an equivalent dose volume of PBS (control). Tumor growth was measured using calipers at 2-day or 3-day intervals in each treatment group. Tumor volumes were calculated using the equation V=a×b^2/2, where “a” is the length of the tumor and “b” is the width expressed in millimeters.

[1] = Animal Weight Determination
Procedure: Animal Weight Determination. The percentage weight change of the mice was determined in mice (5 mice/group) on the indicated days post-tumor inoculation (PTI) as shown in the graph for the samples described in the related tumor volume assay.

folate receptors (FRs) = target: T1, folate receptors (FRs) (Homo sapiens, UniProt P15328); test: Relative Affinity Assay (displacement of 3H-folic acid on FR-positive KB cells); assay type: binding
T1 construct: FR-positive KB cells were heavily seeded into 24-well cell culture plates; endogenous in cells; host or cells: KB cells
Procedure: Relative Affinity Assay. The affinity of the compounds described herein for folate receptors (FRs) relative to folate was determined according to a previously described method (Westerhof, G. R., J. H. Schornagel, et al. (1995) Mol. Pharm. 48: 459-471) with slight modification. Briefly, FR-positive KB cells were heavily seeded into 24-well cell culture plates and allowed to adhere to the plastic for 18 h. Spent incubation media was replaced in designated wells with folate-free RPMI (FFRPMI) supplemented with 100 nM ^3H-folic acid in the absence and presence of increasing concentrations of test article or folic acid. Cells were incubated for 60 min at 37° C. and then rinsed 3 times with PBS, pH 7.4, followed by the addition of 500 μL of 1% SDS in PBS, pH 7.4. Cell lysates were then collected and added to individual vials containing 5 mL of scintillation cocktail, and then counted for radioactivity. Negative control tubes contained only the ^3H-folic acid in FFRPMI (no competitor). Positive control tubes contained a final concentration of 1 mM folic acid, and CPMs measured in these samples (representing non-specific binding of label) were subtracted from all samples.

[2] = system: folate receptor-positive KB cells; assay type: cell-based, human
Procedure: Inhibition of Cellular DNA Synthesis. The compounds described herein were evaluated using an in vitro cytotoxicity assay that predicts the ability of the drug to inhibit the growth of folate receptor-positive KB cells. The compounds were comprised of folate linked to a respective chemotherapeutic drug, as prepared according to the protocols described herein. The KB cells were exposed for predetermined periods of time at 37° C. to the indicated concentrations of folate-drug conjugate in the absence or presence of at least a 100-fold excess of folic acid. The cells were then rinsed with fresh culture medium and incubated in fresh culture medium for 72 hours at 37° C. Cell viability was assessed using a ^3H-thymidine incorporation assay.

[3] = system: Folate receptor-negative 4T-1 tumor cells; test: 4T-1 Tumor Volume Assay; assay type: in vivo, Balb/c mice; details: 3 μmol/kg TIW for 3 weeks
Text: 4T-1 Tumor Volume Assay. Six to seven week-old mice (female Balb/c strain) were obtained from Harlan, Inc., Indianapolis, Ind. The mice were maintained on Harlan's folate-free chow for a total of three weeks prior to the onset of and during this experiment. Folate receptor-negative 4T-1 tumor cells (1×10^6 cells per animal) were inoculated in the subcutis of the right axilla. Approximately 5 days post tumor inoculation when the 4T-1 tumor average volume was ˜100 mm^3, mice (5/group) were injected i.v. three times a week (TIW), for 3 weeks with 3 μmol/kg of drug delivery conjugate or with an equivalent dose volume of PBS (control). Tumor growth was measured using calipers at 2-day or 3-day intervals in each treatment group. Tumor volumes were calculated using the equation V=a×b^2/2, where “a” is the length of the tumor and “b” is the width expressed in millimeters.

T1 sequence (P15328 25-234): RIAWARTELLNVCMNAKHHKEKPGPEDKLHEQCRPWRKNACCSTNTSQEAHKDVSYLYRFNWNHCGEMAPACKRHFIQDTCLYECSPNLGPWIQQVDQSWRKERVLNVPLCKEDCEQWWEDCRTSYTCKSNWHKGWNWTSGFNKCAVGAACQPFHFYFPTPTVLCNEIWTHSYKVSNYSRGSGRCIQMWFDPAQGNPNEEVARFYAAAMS

For `CC[C@]1(O)C[C@H]2CN(CCc3c([nH]c4ccccc34)[C@@](C(=O)OC)(c3cc4c(cc3OC)N(C)[C@H]3[C@@](O)(C(=O)NN=CCOCCOCCN5C(=O)CC(SC[C@H](NC(=O)[C@H](CC(=O)O)NC(=O)[C@H](CC(=O)O)NC(=O)[C@H](CCCNC(=N)N)NC(=O)[C@H](CC(=O)O)NC(=O)CC[C@H](NC(=O)c6ccc(NCc7cnc8nc(N)[nH]c(=O)c8n7)cc6)C(=O)O)C(=O)O)C5=O)[C@H](O)[C@]5(CC)C=CCN6CC[C@]43[C@@H]65)C2)C1` (some centres unmarked) [Example 6], the “growth of M109 tumors” value (M109 tumors; 1.5 μmol/kg TIW) was “inhibits the growth of solid tumors”, the “growth of M109 tumors” value (M109 tumors; 3 μmol/kg TIW for 3 weeks) was “inhibits the growth of solid M109 tumors” and the “growth of M109 tumors” value (M109 tumors; 10 μmol/kg TIW for 3 weeks) was “inhibits the growth of solid tumors”. The “weight of nu/nu mice” value ([1]; 5 μmol/kg for 3 weeks (FIG. 16B)) was “absence of an effect”, the “weight of nu/nu mice” value ([1]; 10 μmol/kg TIW for 3 weeks (FIG. 5B)) was “does not affect the weight of the mice; also recorded: absence of an effect” and the weight of mice ([1]; 10 μmol/kg TIW for 3 weeks (FIG. 7B)) was “absence of an effect”. The “weight of Balb/c mice” value ([1]; 10 μmol/kg for 3 weeks (FIG. 14B)) was “absence of an effect”, the “weight of nu/nu mice” value ([1]; 1, 5, and 10 μmol/kg TIW for 3 weeks (FIG. 6B)) was “little effect on the weight of the mice; also recorded: absence of an effect” and the “relative binding affinity versus folic acid at folic acid receptors” value (folate receptors (FRs); figure legends, folic acid = 1.0, 1 hour at 37° C) was 0.35. The “Relative Folate Receptor Affinity” value (folate receptors (FRs); summary table) was 0.31, the IC50 ([2]; KB cells, without excess folic acid, read-out: IC50, 3H-thymidine incorporation in KB cells) was 14 nM and the “Folate Receptor Competition” value ([2]; summary table) was “Yes”. For the same compound, the “competition by excess folic acid of effect on 3H-thymidine incorporation” value ([2]; with versus without at least 100-fold excess of folic acid) was “folate competes” and the “growth of FR-negative 4T-1 tumors” value [3] was “not folate receptor (FR)-negative tumors; also recorded: absence of activity”.
